Measurements as given in ChEMBL document CHEMBL4834480, “Discovery of 3,5-Dimethyl-4-Sulfonyl-1H-Pyrrole-Based Myeloid Cell Leukemia 1 Inhibitors with High Affinity, Selectivity, and Oral Bioavailability” (J Med Chem, 2021).
Calls of active or inactive are those of the source. The rule behind the calls is not given here.

Assays:
MV4-11 [1] = assay: Antitumor activity against human MV4-11 cells xenografted in BALB/c nude mouse assessed as induction of tumor necrosis at 20 mg/kg, ip administered every two days for 14 days by hematoxyin-eosin staining based analysis; assay type: functional, organism-based; settings: time 14.0 day
CYP3A4 = CYP3A4 (Homo sapiens, UniProt P08684); assay: Inhibition of CYP3A4 (unknown origin) at 10 uM preincubated for 5 min followed by NADPH addition and measured after 20 mins by LC-MS/MS analysis relative to control; assay type: ADME; settings: time 25 min
[2] = Toxicity in BALB/c nude mouse xenografted with human MV4-11 cells assessed as effect on liver weight at 60 mg/kg, po administered every two days for 14 days; assay type: organism-based; settings: in vivo, 336 h, time 14 day
[3] = AUCt in Sprague-Dawley rat at 3 mg/kg, iv measured up to 24 hrs by LC-MS/MS analysis; assay type: ADME, organism-based; set-up: route intravenous, dose 3 mg/kg, time <=24; settings: in vivo
MV4-11 [4] = assay: Antitumor activity against human MV4-11 cells xenografted in BALB/c nude mouse assessed as induction of tumor necrosis at 60 mg/kg, po administered every two days for 14 days by hematoxyin-eosin staining based analysis; assay type: functional, organism-based; settings: time 14.0 day
[5] = Tmax in Sprague-Dawley rat at 10 mg/kg, po measured up to 24 hrs by LC-MS/MS analysis; assay type: ADME, organism-based; settings: in vivo
NCI-H929 = assay: Induction of apoptosis in human NCI-H929 cells assessed as activation of caspase 3 after 4 hrs by luminescence based microplate reader assay; assay type: functional, cell-based; settings: dose microM <=5, time 4.0 hrs

CYP3A4, sequence (P08684 whole entry): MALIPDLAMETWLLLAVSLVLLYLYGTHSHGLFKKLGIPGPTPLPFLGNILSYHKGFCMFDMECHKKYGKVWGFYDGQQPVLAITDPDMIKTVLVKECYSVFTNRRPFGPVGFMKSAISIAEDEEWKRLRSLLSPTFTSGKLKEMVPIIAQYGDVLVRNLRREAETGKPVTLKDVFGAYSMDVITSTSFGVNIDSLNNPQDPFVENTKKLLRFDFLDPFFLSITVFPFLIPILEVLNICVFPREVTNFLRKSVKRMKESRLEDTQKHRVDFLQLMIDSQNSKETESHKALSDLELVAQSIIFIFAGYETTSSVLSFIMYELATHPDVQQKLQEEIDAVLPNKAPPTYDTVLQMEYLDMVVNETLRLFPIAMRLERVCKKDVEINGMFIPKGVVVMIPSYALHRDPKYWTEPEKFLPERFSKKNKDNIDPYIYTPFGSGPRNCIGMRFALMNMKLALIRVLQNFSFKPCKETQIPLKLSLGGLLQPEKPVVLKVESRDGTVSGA

CC(=O)c1ccc(S(=O)(=O)c2c(C)c(C(=O)O)n(CCCOc3cc(C)c(Cl)c(C)c3)c2C)cc1
Activity (MV4-11 [1]): Active
inhibition at 20 min, 10 µM (CYP3A4): 29.4%
Activity [2]: Non-Toxic
AUC(0-t) at 24 h [3]: 3290 ng·h/mL
Activity (MV4-11 [4]): Active
Tmax [5]: 30 min
Activity (NCI-H929): Dose-Dependent Effect
